Laboratory results taken from publication PMC3316526, “Modulation of γ-Secretase Activity by Multiple Enzyme-Substrate Interactions: Implications in Pathogenesis of Alzheimer's Disease” (PLoS ONE, 2012).

Key:
[1] = molecular target: T1, γ-secretase carrying WT presenilin 1 (Homo sapiens, UniProt P49768); experiment: Inhibition of total AICD production, CHAPSO enriched γ-secretase membranes, WT presenilin 1; type: biochemical; conditions: best fit ± standard error, eqn. 3; for IC50: total AICD production, western blot
T1 construct: expressed in transfected cells; host or cells: MEF double knockout for endogenous presenilin, transduced; CHAPSO-solubilised microsomal membranes
Description: (§1) Figure 9 Inhibition of WT presenilin 1 and FAD mutants by DAPT and L-685,458. CHAPSO enriched γ-secretase membranes carrying WT presenilin 1 or FAD mutations ΔE9 and G384A have been prepared and analyzed in parallel with all conditions identical. The dose response curves for DAPT [71] and L-685,458 [15] were measured by following total AICD production using western-blots with αM2 antiflag antibody as shown in Fig. 3. The results were analyzed using nonlinear regression and the equation 3 (methods).
(§2) MEF cells, or MEF double knockout for endogenous presenilin transduced with human WT, dE9 and G384A presenilin 1 [85], were grown to confluence, scraped, and collected in pellets by centrifugation at 1000×g for 5 min. The cell pellets were re-suspended in 20 mM Pipes pH = 7.0, 140 mM KCl, 0.25 M sucrose, 5 mM EGTA, plus 1X Roche protease inhibitors cocktail, so that the total protein concentration was 10 mg/ml. Re-suspended cells were subjected to more than 20 passages in 8.010 mm cell-cracker. The resulting cell extract was subjected to 10 min centrifugation on 2000×g to remove large debris, and the fragmented membranes were collected as pellets after centrifugation for 1 hour at 100 000×g, and stored at −80°C.
(§3) γ-Secretase assays using CHAPSO enriched membranes were performed essentially as earlier described, [37], [48], [89]. Briefly, microsomal fractions (protein concentration 10 mg/ml) from different MEF cells were solubilized in 1% CHAPSO buffer (50 mM Pipes, pH 7.0, 0.25 M sucrose, 1 mM EGTA, 1×Complete protease inhibitor mixture (Roche)) and incubated on ice for 1 h. CHAPSO was always prepared as 1% w/v fresh from a powder stock that was less than 6 months old and kept at 4°C (freshness is crucial for high activity). Next, the membrane-solubilized protein fractions were obtained as supernatant by ultracentrifugation for 1 hour at 100,000×g. The prepared CHAPSO enriched membranes were diluted two fold with 50 mM Pipes pH = 7.0, 0.25 M sucrose, 1 mM EGTA, 0.1% phosphatidylcholine, and 0.0125% phosphatidylethanolamine, plus 1×Complete protease inhibitor mixture (Roche), and left on 37°C for two to three hours. This incubation can increase the measured activity by up to 70% since it can accommodate slow reassembly of γ-secretase components that is induced by the transition from 1% CHAPSO to 0.25% CHAPSO [90]. The reactions were started by adding C99 substrate in desired concentration, the added volume was adjusted so that: i) the final CHAPSO concentration was 0.25%; ii) and final concentration of membrane proteins was 0.25 mg/ml. Fresh C99 substrate that is used immediately after purification gives the best opportunity to observe described enzymatic features and the highest activity. […]

[2] = molecular target: T2, γ-secretase carrying presenilin 1 FAD mutation G384A (Homo sapiens, UniProt P49768, G384A); experiment: Inhibition of total AICD production, CHAPSO enriched γ-secretase membranes, FAD mutant G384A; type: biochemical; conditions: for decrease in inhibition potency relative to the WT: G384A vs WT presenilin 1
T2 construct: expressed in transfected cells; host or cells: MEF double knockout for endogenous presenilin, transduced; CHAPSO-solubilised microsomal membranes
Description: as §1, §2
as §3, with “activity. The assay mix was prepared in low adhesion microcentrifuge tubes, the volume was usually 25 µL. To increase sensitivity in early data points detection, and at low enzyme saturation, the assay volume was increased up to 400 µL, and the resulting reaction products were concentrated by immunoprecipitation before the gels were loaded. The reaction mix was incubated at 37°C, the time was optimized for each experiment. The AICD production remains linear for 6 hours at saturating substrate. The reaction specificity was confirmed by running identical parallel reactions that have been saturated with inhibitors specific for γ-secretase; 10 µM LY-411,575 and 10 µM DAPT [3], [4].” for “activity.”

[3] = tested on: γ-secretase carrying presenilin 1 FAD mutation ΔE9; experiment: Inhibition of total AICD production, CHAPSO enriched γ-secretase membranes, FAD mutant ΔE9; type: biochemical, human; conditions: for Hill's coef. / IC50: ΔE9 presenilin 1, best fit ± standard error, eqn. 3; for IC50: total AICD production, western blot; for decrease in inhibition potency relative to the WT: ΔE9 vs WT presenilin 1
Description: as §1, §2
(§4) γ-Secretase assays using CHAPSO enriched membranes were performed essentially as earlier described, [37], [48], [89]. Briefly, microsomal fractions (protein concentration 10 mg/ml) from different MEF cells were solubilized in 1% CHAPSO buffer (50 mM Pipes, pH 7.0, 0.25 M sucrose, 1 mM EGTA, 1×Complete protease inhibitor mixture (Roche)) and incubated on ice for 1 h. CHAPSO was always prepared as 1% w/v fresh from a powder stock that was less than 6 months old and kept at 4°C (freshness is crucial for high activity). Next, the membrane-solubilized protein fractions were obtained as supernatant by ultracentrifugation for 1 hour at 100,000×g. The prepared CHAPSO enriched membranes were diluted two fold with 50 mM Pipes pH = 7.0, 0.25 M sucrose, 1 mM EGTA, 0.1% phosphatidylcholine, and 0.0125% phosphatidylethanolamine, plus 1×Complete protease inhibitor mixture (Roche), and left on 37°C for two to three hours. This incubation can increase the measured activity by up to 70% since it can accommodate slow reassembly of γ-secretase components that is induced by the transition from 1% CHAPSO to 0.25% CHAPSO [90]. The reactions were started by adding C99 substrate in desired concentration, the added volume was adjusted so that: i) the final CHAPSO concentration was 0.25%; ii) and final concentration of membrane proteins was 0.25 mg/ml. Fresh C99 substrate that is used immediately after purification gives the best opportunity to observe described enzymatic features and the highest activity. The assay mix was prepared in low adhesion microcentrifuge tubes, the volume was usually 25 µL. To increase sensitivity in early data points detection, and at low enzyme saturation, the assay volume was increased up to 400 µL, and the resulting reaction products were concentrated by immunoprecipitation before the gels were loaded. The reaction mix was incubated at 37°C, the time was optimized for each experiment. The AICD production remains linear for 6 hours at saturating substrate. The reaction specificity was confirmed by running identical parallel reactions that have been saturated with inhibitors specific for γ-secretase; 10 µM LY-411,575 and 10 µM DAPT [3], [4].
(§5) AICD assays using western-blots with anti-flag αM2 monoclonal antibody, or 125-I labelled C99 autoradiography were performed as earlier described, [37]. To keep the C99 bands visible on gels in difference to the previous studies the reaction aliquots were not subjected to methanol /chloroform extraction. Briefly, the samples were separated on Nu-PAGE 12% Bis/Tris/MES/SDS-page gels (Invitrogen) at 150 V for 55 min. For 125-I-C99 assays the gels were dried and exposed for 1–2 hours to europium intensifying screens for autoradiography. […]

[4] = tested on: γ-secretase; experiment: Michaelis-Menten profiles for AICD, Aβ 1–40 and Aβ 1–42 in presence of DAPT; type: biochemical; conditions: enzyme approaching saturation with C99 substrate; DAPT 70-200 nM
Description: Figure 3 Michaelis-Menten profiles for AICD, Aβ 1–40 and Aβ 1–42 in presence of DAPT. CHAPSO enriched γ-secretase membranes were used to measure Michaelis-Menten profiles for total AICD production in presence of 0 nM (•), 70 nM (+) and 150 nM (O) of DAPT. Michaelis-Menten profiles for Aβ 1–40 and Aβ 1–42 production were measured in presence of 0 nM (•), 100 nM (+) and 200 nM (O) of DAPT. All profiles have been analyzed using nonlinear regression and the eqn. 4 (methods). The gel strips show different concentrations of the C99 substrate and the corresponding AICD products. […] AICD was measured using antiflag M2 antibodies (as shown in the gel strip). Aβ 1–40, and Aβ 1–42 were measured using AlphaScreen® as described in methods section.
γ-Secretase assays using CHAPSO enriched membranes were performed essentially as earlier described, [37], [48], [89]. […] This incubation can increase the measured activity by up to 70% since it can accommodate slow reassembly of γ-secretase components that is induced by the transition from 1% CHAPSO to 0.25% CHAPSO [90]. […]
AICD assays using western-blots with anti-flag αM2 monoclonal antibody, or 125-I labelled C99 autoradiography were performed as earlier described, [37]. […] Following the washes with TBS +0.1% Tween 20, the membranes were subjected to 25 nM GAMIR (MolecularProbes), washed, and read using fluorescence at […]. […]

[5] = molecular target: γ-secretase; conditions: quoted without reference; read-out: IC50 in cell-based assays; cited from earlier work
[6] = tested on: γ-secretase; experiment: Titration of γ-secretase activity in CHAPSO enriched membranes with LY-411,575; type: biochemical; conditions: total protein 0.25 mg/ml and 0.09 mg/ml
Description: as §3, with “mg/ml.” for “mg/ml. Fresh C99 substrate that is used immediately after purification gives the best opportunity to observe described enzymatic features and the highest activity.”

[7] = tested on: patients; set-up: method as in PMID 21222550; conditions: Phase III clinical trials; cited from earlier work
[8] = molecular target: γ-secretase (CHAPSO enriched γ-secretase membranes) (not stated (endogenous mouse in MEF, or human presenilin 1 transduced) | mouse (endogenous in MEF)) (UniProt P49768)
[9] = molecular target: APP C99-3×FLAG (human); experiment: AlphaScreen or HTRF; increasing fresh C99 incubated 3 h with 10 nM 3D6 antibody coupled to both donor and acceptor beads; signal only if C99 dimerization/oligomerization brings two epitopes together; apparent Kd from a quadratic equation specific for dimerization (dimer to monomers)
[10] = tested on: γ-secretase; experiment: γ-Secretase reaction premixed with synthetic Aβ peptides (AICD production, urea gels of Aβ products); type: biochemical; conditions: for effect on the rate of AICD production: extremely high concentrations of synthetic peptide, half-saturating C99 (0.45 µM); for effect on relative difference between Aβ 1–40, Aβ 1–42 and the longer Aβ products: reaction premixed with 10 nM synthetic peptide, urea gels, [C99] = 0.45 µM, 4 hours
Description: Figure 7 γ-Secretase is not affected by Aβ peptides present in free solution. (A) The lanes labeled as “free reaction” represent Aβ products after 4 hours of routine γ-secretase reaction at half saturating C99 substrate ([C99] = 0.45 µM). The lanes labeled as “+10 nM Aβ 1–42” and “+10 nM Aβ 1–40” represent “free reaction” premixed with synthetic Aβ 1–42 or Aβ 1–40 in a concentration equivalent that corresponds to 4 hours of free reaction. The lanes labeled “+21F12” and “+2G6” represent “free reaction” that was premixed with antibodies specific for Aβ42 or Aβ40 respectively. Both 2G6 and 21F12 antibodies bind the matching Aβ peptides very efficiently as indicated by a complete removal of the corresponding Aβ bands in the reactions with protein G beads (samples labeled as “21F12 and prot. G” and “2G6 and prot. G”). The lane “Aβ std 1-x” represents synthetic peptides as mobility standards. (B) AICD production was measured at half-saturating C99 substrate (0.45 µM) in assays that were premixed with increasing concentrations of synthetic Aβ 1–38, Aβ 1–40, Aβ 1–42, or Aβ 1–44.
as §4, §5

[11] = molecular target: γ-secretase (CHAPSO enriched γ-secretase membranes) (not stated (endogenous mouse in MEF, or human presenilin 1 transduced) | mouse (endogenous in MEF)) (UniProt P49768); remark: listed apart in the source
[12] = G384A presenilin 1, best fit ± standard error, eqn. 3

C[C@H](NC(=O)Cc1cc(F)cc(F)c1)C(=O)N[C@H](C(=O)OC(C)(C)C)c1ccccc1 [DAPT, N-[N-(3,5-difluorophenacetyl)-L-alanyl]-S-phenylglycine t-butyl ester]
Hill's coef. [1]: 0.7±0.2 | IC50 [1]: 390 ± 179 nM | Hill's coef. [2, 12]: 0.54±0.25 | decrease in inhibition potency relative to the WT [2]: about 1000 fold | Hill's coef. [3]: 1.21±0.07 | IC50 [3]: 734 ± 254 nM | decrease in inhibition potency relative to the WT [3]: approximately twofold | mode of inhibition versus C99 substrate [4]: noncompetitive inhibitor

CC(C)C[C@H](NC(=O)[C@H](Cc1ccccc1)C[C@@H](O)[C@H](Cc1ccccc1)NC(=O)OC(C)(C)C)C(=O)N[C@@H](Cc1ccccc1)C(N)=O [L-685,458, {1S-benzyl-4R-[1S-carbamoyl-2-phenylethylcarbamoyl-1S-3-methylbutylcarbamoyl]-2R-hydroxy-5-phenylpentyl} carbamic acid tert-butyl ester]
Hill's coef. [1]: 1.3±0.1 | IC50 [1]: 32 ± 4 nM | Hill's coef. [2, 12]: 1±0.13 | IC50 ([2]; G384A presenilin 1, total AICD production, western blot, best fit ± standard error, eqn. 3): 398 ± 51 nM | decrease in inhibition potency relative to the WT [2]: 10–20 fold | Hill's coef. [3]: 0.98± 0.08 | IC50 [3]: 707 ± 80 nM | decrease in inhibition potency relative to the WT [3]: 10–20 fold

C[C@H](NC(=O)[C@@H](O)c1cc(F)cc(F)c1)C(=O)N[C@@H]1C(=O)N(C)c2ccccc2-c2ccccc21 [LY-411,575]
IC50 [5]: ~0.1 nM | concentration that completely abolishes γ-secretase activity [6]: 1 to 2 nM

CC(C)[C@H](O)C(=O)N[C@@H](C)C(=O)N[C@@H]1C(=O)N(C)CCc2ccccc21 [semagacestat]
effect on cognitive decline in patients [7]: can accelerate the cognitive decline

APP C99-3×FLAG (domain or fragment)
Y-axis intercept of the pre-steady-state burst in AICD production (3.0 µM C99, CHAPSO enriched γ-secretase membranes 0.25 mg/ml) [8]: 8.2 nM | Kd [9]: 33 nM

Aβ 1–38: synthetic Aβ 1-x standard prepared by solid phase synthesis
effect on the rate of AICD production [10]: do not affect

Aβ 1–40: synthetic Aβ 1-x standard prepared by solid phase synthesis
effect on the rate of AICD production [10]: do not affect | effect on relative difference between Aβ 1–40, Aβ 1–42 and the longer Aβ products [10]: does not affect

Aβ 1–42: synthetic Aβ 1-x standard prepared by solid phase synthesis
effect on the rate of AICD production [10]: do not affect | effect on relative difference between Aβ 1–40, Aβ 1–42 and the longer Aβ products [10]: does not affect

Aβ 1–44: synthetic Aβ 1-x standard prepared by solid phase synthesis
effect on the rate of AICD production [10]: do not affect

NotchΔE substrate (NotchΔE-3xFLAG) (domain or fragment)
AICD production from 125-I labeled C99 at half-saturating C99 (0.44-0.45 µM) with increasing NotchΔE substrate: activation, then inhibition only at higher NotchΔE concentrations [11]: 85%
